Values quoted from earlier work as cited in PubChem BioAssay AID1259409 (Chemical Carcinogenesis Research Information System (CCRIS), 2018).

Tested on: rodent chemically induced tumor inhibition, incidence and multiplicity
Test: CCRIS tumor inhibitor studies
Conditions: for tumour outcome (control, treated, inhibition, significance): Promoter: NONE USED

Structure (SMILES): C[C@]12CCC(=O)C=C1CC[C@@H]1[C@@H]2[C@@H](O)C[C@@]2(C)[C@H]1CC[C@]2(O)C(=O)CO
- tumour outcome (control, treated, inhibition, significance) (Carcinogen: METHYLAZOXYMETHANOL ACETATE, 592-62-1, Dose [Inhibitor]: 7.5 MG/KG BW DAILY FOR 3 WK STARTING 21 WK POST CARCINOGEN TREATMENT (STUDY DURATION: 30 WK), Route [Inhibitor]: INTRARECTAL, Species: RAT, Strain/Sex: DONRYU/MALE, Target Tissue: Type of Lesion: LARGE INTESTINE: ADENOCARCINOMA, Dose [Carcinogen]: 20 MG/KG BW 1/WK FOR 6 WK): 19/23 (83%), 16/29 (55%), 34%, p<0.05
- tumour outcome (control, treated, inhibition, significance) (Carcinogen: METHYLAZOXYMETHANOL ACETATE, 592-62-1, Dose [Inhibitor]: 7.5 MG/KG BW DAILY FOR 3 WK STARTING 21 WK POST CARCINOGEN TREATMENT (STUDY DURATION: 30 WK), Route [Inhibitor]: INTRARECTAL, Species: RAT, Strain/Sex: DONRYU/MALE, Target Tissue: Type of Lesion: SMALL INTESTINE: ADENOCARCINOMA, Dose [Carcinogen]: 20 MG/KG BW 1/WK FOR 6 WK): 10/23 (43%), 4/29 (14%), 67%, p<0.05
- tumour outcome (control, treated, inhibition, significance) (Dose [Inhibitor]: 0, 1.5 MG 2/WK FOR 10 WK (STUDY DURATION: 65 WK), Route [Inhibitor]: INTRAMUSCULAR, Species: RAT, Strain/Sex: F344/MALE, Target Tissue: Type of Lesion: LIVER: HEPATOCELLULAR CARCINOMA, Dose [Carcinogen]: 100 UG 2/WK FOR 10 WK): 12/13 (92%), 15/24 (63%), 32%, p<0.05

Structure (SMILES): c1ccc2c(c1)Nc1ccccc1[Se]2
- tumour outcome (control, treated, inhibition, significance) (Carcinogen: BENZO[A]PYRENE, 50-32-8, Dose [Inhibitor]: 0, 3.8 UMOL/G DIET BEGINNING 1 WK PRIOR TO CARCINOGEN TREATMENT AND CONTINUING FOR 1 WK POST CARCINOGEN TREATMENT FOLLOW, Route [Inhibitor]: ORAL, Species: MOUSE, Strain/Sex: CD-1/FEMALE, Target Tissue: Type of Lesion: FORESTOMACH: PAPILLOMA, Dose [Carcinogen]: 1 MG IN 0.2 ML CORN OIL 2/WK FOR 4 WK): 85%, 95%, -12%, not significant

Structure (SMILES): N[C@@H](Cc1cc(I)c(Oc2cc(I)c(O)c(I)c2)c(I)c1)C(=O)O
- outcome (Carcinogen: N-METHYL-N-NITROSOUREA [684-93-5], Dose [Inhibitor]: 3 UG/ML IN DRINKING WATER, 2 WKS BEFORE CARCINOGEN AND FOR 26 WKS AFTER, Route [Inhibitor]: DRINKING WATER, Species: RAT, Strain/Sex: SPRAGUE-DAWLEY/FEMALE, Target Tissue: Type of Lesion: MAMMARY GLAND: CARCINOMA, Dose [Carcinogen]: 50 MG/KG BW ONCE AT 7 WKS OF AGE (IN SALINE SOLUTION)): 8/11 (73%) vs 9/11 (82%) at 16 wks
